According to PubChem BioAssay (NCI):
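Briefly, cells in 96-well plates were exposed to five compound concentrations for 48 h, and endpoints were estimated by linear interpolation. At the TGI there is no net growth.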

How the values were obtained:
Experiment in all cases: growth of human tumour cells (NCI), 48 h
[1] = system: 786-0 renal
[2] = system: A498 renal
[3] = system: A549 NSCLC
[4] = system: ACHN renal
[5] = system: CAKI-1 renal
[6] = system: CCRF-CEM leukemia
[7] = system: COLO 205 colon
[8] = system: DLD-1 colon
[9] = system: DMS 114 small cell lung
[10] = system: DMS 273 small cell lung
[11] = system: EKVX NSCLC
[12] = system: HCT-116 colon
[13] = system: HCT-15 colon
[14] = system: HL-60(TB) leukemia
[15] = system: HOP-18 NSCLC
[16] = system: HOP-62 NSCLC
[17] = system: HOP-92 NSCLC
[18] = system: HT29 colon
[19] = system: K-562 leukemia
[20] = system: KM12 colon
[21] = system: KM20L2 colon
[22] = system: LOX IMVI melanoma
[23] = system: LXFL 529 NSCLC
[24] = system: M14 melanoma
[25] = system: M19-MEL melanoma
[26] = system: MALME-3M melanoma
[27] = system: MOLT-4 leukemia
[28] = system: NCI-H226 lung
[29] = system: NCI-H460 lung
[30] = system: NCI-H522 lung
[31] = system: OVCAR-3 ovarian
[32] = system: OVCAR-4 ovarian
[33] = system: OVCAR-5 ovarian
[34] = system: OVCAR-8 ovarian
[35] = system: RPMI-8226 leukemia
[36] = system: RXF 393 renal
[37] = system: RXF-631 renal
[38] = system: SF-268 CNS
[39] = system: SF-295 CNS
[40] = system: SK-MEL-2 melanoma
[41] = system: SK-MEL-28 melanoma
[42] = system: SK-MEL-5 melanoma
[43] = system: SK-OV-3 ovarian
[44] = system: SN12C renal
[45] = system: SNB-19 CNS
[46] = system: SNB-75 CNS
[47] = system: SNB-78 CNS
[48] = system: SR leukemia
[49] = system: SW-620 colon
[50] = system: TK-10 renal
[51] = system: U251 CNS
[52] = system: UACC-257 melanoma
[53] = system: UACC-62 melanoma
[54] = system: UO-31 renal
[55] = system: XF 498 CNS
[56] = system: IGROV1 ovarian
[57] = system: HCC-2998 colon
[58] = system: NCI-H23 lung
[59] = system: SF-539 CNS

Compound `CC(=O)Oc1ccc(CO)cc1OC(C)=O` has a TGI [1] greater than 100 µM, a TGI [2] greater than 100 µM and a TGI [3] greater than 100 µM. It also gave a TGI [4] greater than 100 µM, a TGI [5] greater than 100 µM and a TGI [6] of 76.1 µM. It also gave a TGI [7] greater than 100 µM, a TGI [8] greater than 100 µM and a TGI [9] greater than 100 µM. It also gave a TGI [10] greater than 100 µM, a TGI [11] greater than 100 µM and a TGI [12] greater than 100 µM. It also gave a TGI [13] greater than 100 µM, a TGI [14] of 75.2 µM and a TGI [15] greater than 100 µM. The TGI [16] was greater than 100 µM, the TGI [17] was greater than 100 µM and the TGI [18] was greater than 100 µM. It also gave a TGI [19] greater than 100 µM, a TGI [20] greater than 100 µM and a TGI [21] greater than 100 µM. It also gave a TGI [22] greater than 100 µM, a TGI [23] greater than 100 µM and a TGI [24] greater than 100 µM. For the same compound, the TGI [25] was greater than 100 µM, the TGI [26] was greater than 100 µM and the TGI [27] was greater than 100 µM. The TGI [28] was greater than 100 µM, the TGI [29] was greater than 100 µM and the TGI [30] was greater than 100 µM. The TGI [31] was greater than 100 µM, the TGI [32] was greater than 100 µM and the TGI [33] was greater than 100 µM. For the same compound, the TGI [34] was greater than 100 µM, the TGI [35] was greater than 100 µM and the TGI [36] was greater than 100 µM. The TGI [37] was greater than 100 µM, the TGI [38] was greater than 100 µM and the TGI [39] was greater than 100 µM. The TGI [40] was greater than 100 µM, the TGI [41] was greater than 100 µM and the TGI [42] was greater than 100 µM. The TGI [43] was greater than 100 µM, the TGI [44] was greater than 100 µM and the TGI [45] was greater than 100 µM. The TGI [46] was greater than 100 µM, the TGI [47] was greater than 100 µM and the TGI [48] was greater than 100 µM. The TGI [49] was greater than 100 µM, the TGI [50] was greater than 100 µM and the TGI [51] was greater than 100 µM. For the same compound, the TGI [52] was greater than 100 µM, the TGI [53] was greater than 100 µM and the TGI [54] was greater than 100 µM. For the same compound, the TGI [55] was greater than 100 µM.
`C#C[C@H](CCCC)OC(=O)N[C@H](C)c1ccccc1` gave a TGI [1] greater than 100 µM, a TGI [3] greater than 100 µM and a TGI [4] greater than 100 µM. The TGI [5] was greater than 100 µM, the TGI [6] was greater than 100 µM and the TGI [7] was 48.7 µM. The TGI [8] was greater than 100 µM, the TGI [9] was 81 µM and the TGI [10] was greater than 100 µM. It also gave a TGI [11] greater than 100 µM, a TGI [12] of 63.4 µM and a TGI [14] of 40.7 µM. For the same compound, the TGI [15] was greater than 100 µM, the TGI [16] was greater than 100 µM and the TGI [17] was greater than 100 µM. It also gave a TGI [18] greater than 100 µM, a TGI [56] greater than 100 µM and a TGI [19] greater than 100 µM. It also gave a TGI [20] greater than 100 µM, a TGI [21] greater than 100 µM and a TGI [22] of 87.8 µM. For the same compound, the TGI [23] was greater than 100 µM, the TGI [24] was greater than 100 µM and the TGI [25] was 93.8 µM. For the same compound, the TGI [27] was 94.8 µM, the TGI [29] was greater than 100 µM and the TGI [30] was 86.8 µM. It also gave a TGI [31] greater than 100 µM, a TGI [32] greater than 100 µM and a TGI [33] of 99 µM. For the same compound, the TGI [34] was greater than 100 µM, the TGI [35] was 69.4 µM and the TGI [36] was 92.4 µM. The TGI [37] was greater than 100 µM, the TGI [38] was greater than 100 µM and the TGI [39] was greater than 100 µM. It also gave a TGI [40] of 68.4 µM, a TGI [41] greater than 100 µM and a TGI [42] of 37 µM. The TGI [43] was greater than 100 µM, the TGI [44] was greater than 100 µM and the TGI [45] was greater than 100 µM. It also gave a TGI [46] greater than 100 µM, a TGI [47] greater than 100 µM and a TGI [48] of 99.4 µM. For the same compound, the TGI [49] was greater than 100 µM, the TGI [50] was greater than 100 µM and the TGI [51] was greater than 100 µM. The TGI [52] was 71 µM, the TGI [53] was greater than 100 µM and the TGI [54] was 75.8 µM. It also gave a TGI [55] greater than 100 µM.
In the case of `CCCCCCCCCCCC(O)=C1C(=O)CC(O)CC1=O` (stereo not given), the TGI [1] is reported as greater than 100 µM, the TGI [3] is reported as greater than 100 µM and the TGI [4] is reported as greater than 100 µM. The TGI [5] was greater than 100 µM, the TGI [6] was greater than 100 µM and the TGI [7] was greater than 100 µM. For the same compound, the TGI [9] was greater than 100 µM, the TGI [10] was greater than 100 µM and the TGI [11] was greater than 100 µM. The TGI [57] was greater than 100 µM, the TGI [12] was greater than 100 µM and the TGI [14] was 58.7 µM. It also gave a TGI [15] greater than 100 µM, a TGI [16] greater than 100 µM and a TGI [17] greater than 100 µM. It also gave a TGI [18] greater than 100 µM, a TGI [56] greater than 100 µM and a TGI [19] greater than 100 µM. It also gave a TGI [20] greater than 100 µM, a TGI [21] greater than 100 µM and a TGI [22] greater than 100 µM. For the same compound, the TGI [23] was greater than 100 µM, the TGI [24] was greater than 100 µM and the TGI [25] was greater than 100 µM. The TGI [27] was greater than 100 µM, the TGI [28] was greater than 100 µM and the TGI [58] was greater than 100 µM. For the same compound, the TGI [29] was greater than 100 µM, the TGI [30] was greater than 100 µM and the TGI [31] was greater than 100 µM. It also gave a TGI [32] greater than 100 µM, a TGI [33] greater than 100 µM and a TGI [34] greater than 100 µM. For the same compound, the TGI [35] was greater than 100 µM, the TGI [36] was greater than 100 µM and the TGI [37] was greater than 100 µM. For the same compound, the TGI [38] was greater than 100 µM, the TGI [39] was greater than 100 µM and the TGI [59] was greater than 100 µM. The TGI [40] was greater than 100 µM, the TGI [41] was greater than 100 µM and the TGI [42] was greater than 100 µM. The TGI [43] was greater than 100 µM, the TGI [44] was greater than 100 µM and the TGI [45] was greater than 100 µM. For the same compound, the TGI [46] was greater than 100 µM, the TGI [47] was greater than 100 µM and the TGI [48] was greater than 100 µM. It also gave a TGI [49] greater than 100 µM, a TGI [50] greater than 100 µM and a TGI [51] greater than 100 µM. It also gave a TGI [52] greater than 100 µM, a TGI [53] greater than 100 µM and a TGI [54] greater than 100 µM. For the same compound, the TGI [55] was greater than 100 µM.
`COc1ccc(NC(=O)CC(=O)N/N=C/c2ccc(N(CCC#N)S(=O)(=O)c3ccccc3)cc2)cc1` showed a TGI [1] greater than 100 µM, a TGI [3] greater than 100 µM and a TGI [4] greater than 100 µM. The TGI [5] was greater than 100 µM, the TGI [6] was greater than 100 µM and the TGI [7] was greater than 100 µM. The TGI [8] was greater than 100 µM, the TGI [9] was greater than 100 µM and the TGI [11] was greater than 100 µM. For the same compound, the TGI [57] was greater than 100 µM, the TGI [12] was greater than 100 µM and the TGI [13] was greater than 100 µM. It also gave a TGI [14] greater than 100 µM, a TGI [15] greater than 100 µM and a TGI [16] greater than 100 µM. The TGI [17] was greater than 100 µM, the TGI [18] was greater than 100 µM and the TGI [56] was greater than 100 µM. The TGI [19] was greater than 100 µM, the TGI [20] was greater than 100 µM and the TGI [21] was greater than 100 µM. The TGI [22] was greater than 100 µM, the TGI [23] was greater than 100 µM and the TGI [24] was greater than 100 µM. The TGI [25] was greater than 100 µM, the TGI [26] was greater than 100 µM and the TGI [27] was greater than 100 µM. For the same compound, the TGI [28] was greater than 100 µM, the TGI [58] was greater than 100 µM and the TGI [29] was greater than 100 µM. The TGI [30] was greater than 100 µM, the TGI [31] was greater than 100 µM and the TGI [32] was greater than 100 µM. It also gave a TGI [33] greater than 100 µM, a TGI [34] greater than 100 µM and a TGI [35] greater than 100 µM. It also gave a TGI [37] greater than 100 µM, a TGI [38] greater than 100 µM and a TGI [39] greater than 100 µM. It also gave a TGI [40] greater than 100 µM, a TGI [41] greater than 100 µM and a TGI [42] greater than 100 µM. For the same compound, the TGI [43] was greater than 100 µM, the TGI [45] was greater than 100 µM and the TGI [47] was greater than 100 µM. For the same compound, the TGI [48] was greater than 100 µM, the TGI [49] was greater than 100 µM and the TGI [50] was greater than 100 µM. For the same compound, the TGI [51] was greater than 100 µM, the TGI [52] was greater than 100 µM and the TGI [53] was greater than 100 µM. For the same compound, the TGI [54] was greater than 100 µM and the TGI [55] was greater than 100 µM.
